For orientation: IC50 means the concentration needed to halve the response being measured. Higher therefore signals weaker potency.

Assay [1] deals with Mcl-1 levels in IM9, KMH2, Ramos, BL2 cells. As to the kind of experiment: Western blot of protein levels after MG-132 treatment. Particulars: all cell types, 10 μM, 5 h. It counts as cell-based, human. Here is the method: (§1) IM9, KMH2, BL2 and Ramos cells were plated (3×10^6 cells per well in a 6-well dish) and treated with 10 μM MG-132 for 5 hours. Equal amount of DMSO was added to the control samples. Cells were then lysed and subjected to SDS-PAGE/Western blot analyses.
(§2) In this example, in FIG. 26, it is shown that proteosomal degradation is not the cause of NMT2 depletion in BL cells. In these experiments, “Normal” immortalized B lymphocytes (IM9) and malignant B lymphoma cells [Hodgkin's lymphoma (KMH2) and BL (Ramos, BL2)] treated with 10 μM of proteosomal inhibitor (MG-132) for 5 h. Western blotting was performed on cell lysates to monitor levels of NMT1, NMT2, Mcl-1, and GAPDH.
(§3) To investigate whether NMT2's degradation was increased as a result of a destabilizing mutation or the presence of an unknown factor that could destabilize NMT2 in cancer cells, we treated normal and malignant lymphocytes with the proteosomal degradation inhibitor MG-132 for 5 h. Cell lysates were subjected to western blotting to analyze the presence of NMT1, NMT2 and myeloid cell leukemia-1 protein (Mcl-1), which was used as a control to check the effectiveness of MG-132 since it is subject to proteosomal degradation.

Assay [2] concerns NMT2 levels in BL cells (Ramos, BL2). The description is as above. It counts as cell-based, human. Conditions: 10 μM, 5 h. Here is the method: as §1, §2, §3
The test system is the same in assay [3]. Put plainly: Western blot of protein levels after SAHA treatment. Particulars: 1 μM, 24 h. The assay is classed as cell-based, human. As for the experimental part: (§4) IM9, BL2 and Ramos cells were plated at 3×10^6 cells per well in a 6-well dish and treated with 1 μM suberoylanilide hydroxamic acid (SAHA), which is a reversible inhibitor of class I and class II histone deacetylases (HDACs), for 24 hours. Equal amount of DMSO was added to cells as a control. Cells were lysed and subjected to SDS-PAGE/Western blot analyses.
(§5) To test whether the reduction in mRNA NMT2 was due to chromatin silencing, we treated “normal” B cells (IM9) and malignant BL cells with suberoylanilide hydroxamic acid (SAHA) (also named vorinostat), a class I and class II histone deacetylase inhibitor, for 24 hours and monitored the levels of NMT1 and NMT2 by western blot. In particular, “Normal” B cells (IM9) and malignant BL cells (Ramos, BL2) treated with 1 μM SAHA (HDAC class I/II inhibitor) for 24 h. Cells were then lysed, subjected to SDS-PAGE and western blotting was performed with NMT1, NMT2, p21/WAF1 and GAPDH antibodies.
A general note: Immunoblotting shows a protein as a band on a membrane.

Assay [4] deals with NMT1 levels in IM9, Ramos, BL2 cells. The assay is described as above. Conditions: 1 μM, 24 h. It counts as cell-based, human. Here is the method:
as §4, §5

Assay [5] has as its system p21/WAF1 levels in IM9, Ramos, BL2 cells. Described as above. It counts as cell-based, human. Conditions: all cells, 1 μM, 24 h. Here is the method: as §4, §5
The subject of assay [6] is Ramos (Burkitt's lymphoma) cells. Put plainly: Trypan blue exclusion cell viability assay. The assay is classed as cell-based, human. Conditions: 24 hours, compared with L0 and CEM cells. Here is the method: (§6) Cell viability assay. B and T cell viability was measured using the trypan blue exclusion method. Cells were grown in confluency conditions (2×10^6 cells/mL maximum) assuring the minimum basal apoptosis. […] Cell viability was quantified using the TC10™ automated cell counter (Biorad).
(§7) The drugs were dissolved in DMSO to make 100× stock solutions for each concentration tested, so that the final volume of DMSO in each well was 1%.
(§8) Cell viability was then quantified using the TC10™ automated cell counter (Biorad).

The subject of assay [7] is BL-2 (Burkitt's lymphoma) cells. As to the kind of experiment: Trypan blue exclusion cell viability assay. It counts as cell-based, human. Particulars: BL-2, 24 hours, compared with L0 and CEM cells. Here is the method:
as §6, §7, §8

For a further assay, the target named is T1, NMT1 (Homo sapiens, UniProt P30419).
T1 construct: We generated His-tagged full-length (His-NMT1 and His-NMT2) and caspase truncated (His-73NMT1, His-26NMT2 and His-68NMT2) human NMT vectors; His6 (N); made in house; host or cells: E. coli Lemo21(DE3) pLysS
T1 sequence (P30419 whole entry, the tested form may be a part): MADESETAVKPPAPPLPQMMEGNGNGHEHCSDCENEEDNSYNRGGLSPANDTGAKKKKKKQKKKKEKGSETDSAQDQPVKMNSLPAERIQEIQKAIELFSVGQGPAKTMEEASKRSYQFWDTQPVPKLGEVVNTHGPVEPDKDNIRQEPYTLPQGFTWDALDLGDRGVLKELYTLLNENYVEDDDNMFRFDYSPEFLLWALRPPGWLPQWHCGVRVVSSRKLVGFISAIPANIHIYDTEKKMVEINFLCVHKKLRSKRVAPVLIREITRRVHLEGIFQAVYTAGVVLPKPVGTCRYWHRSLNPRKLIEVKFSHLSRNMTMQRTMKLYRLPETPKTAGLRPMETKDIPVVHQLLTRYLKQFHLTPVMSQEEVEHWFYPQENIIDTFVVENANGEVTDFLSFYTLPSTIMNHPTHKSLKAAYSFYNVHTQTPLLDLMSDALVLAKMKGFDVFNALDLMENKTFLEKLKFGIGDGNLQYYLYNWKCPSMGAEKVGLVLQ
Put plainly: In vitro NMT activity (peptide myristoylation) assay. The assay is classed as biochemical. The source says: (§9) In vitro NMT activity assay. N-myristoyltransferase activity assay protocol was adapted from Raju, R. V., and Sharma, R. K. (1999) Preparation and assay of myristoyl-CoA:protein N-myristoyltransferase. Methods Mol Biol 116, 193-211. [^3H] myristoyl-CoA was freshly synthesized for each experiment, as previously described by Towler, D., and Glaser, L. (1986) Protein fatty acid acylation: enzymatic synthesis of an N-myristoylglycyl peptide. Proc Nat Acad Sci USA 83, 2812-2816. Briefly, cells were resuspended in 0.25 M sucrose buffer (50 mM NaH2PO4, pH 7.4) and subjected to 2 rounds of sonication at level 6.0 on a Branson Sonicator. Reaction mixture is composed of 10 μL of cell extract (about 20 μg of proteins) incubated in NMT activity buffer (0.26M Tris-HCl, 3.25 mM EGTA, 2.92 mM EDTA and 29.25 mM 2-mercaptoethanol, 1% Triton X-100, pH 7.4) and myristoylable or non-myristoylable decapeptide corresponding to the N-terminal sequence of truncated-Bid (0.1 mM dissolved in water). Reaction was started by the addition of 7.4 μL (≈10 pMol) of freshly synthesized [^3H] myristoyl-CoA (final mixture volume=25 μL) and incubated for 15 min at 30° C. The reaction is stopped by spotting 15 μL of the reaction mixture on a P81 phosphocellulose paper disc (Whatman, Kent, UK) and dried for 30 seconds. Discs were washed (washing buffer: 25 mM Tris buffer, pH 7.4) to remove the residual radioactivity ([^3H]-myristate and [^3H]-myristoyl-CoA) while [^3H]-myristoyl-peptide is retained on the phosphocellulose paper. Radioactivity was quantified by liquid scintillation counting and converted into pMol of myristoylated peptide (Raju, R. V., and Sharma, R. K. (1999) Preparation and assay of myristoyl-CoA:protein N-myristoyltransferase. Methods Mol Biol 116, 193-211
(§10) NMT activity was assayed using a peptide myristoylation assay with purified recombinant NMT1 and NMT2. NMT activity was calculated from the amount of radiolabeled myristoylpeptide produced and detected on phosphocellulose paper (adapted from King et al. 1991, Anal Biochem.).
(§11) In this example, in FIG. 10, the sensitivity of various immortalized normal LO B lymphocytes (obtained from Dr. Riabowol, U. of Calgary), malignant B lymphoma cells (Ramos and BL2), and, T cell leukemia (CEM) is shown to the NMT inhibitor TrisDBA for 24 hours (A) Residual viability of various cell lines treated with TrisDBA for 24 hours (n=9) (B) Effect of TrisDBA on N-myristoyltransferase activity in COS7 cells transiently expressing NMT1 or NMT2 incubated for 24 h with TrisDBA. In vitro the IC50 for TrisDBA is approximately 2 μM for NMT1 and 5 μM for NMT2.

For another assay, the target named is T2, NMT2 (Homo sapiens, UniProt O60551).
T2 construct: We generated His-tagged full-length (His-NMT1 and His-NMT2) and caspase truncated (His-73NMT1, His-26NMT2 and His-68NMT2) human NMT vectors; His6 (N); made in house; host or cells: E. coli Lemo21(DE3) pLysS
T2 sequence (O60551 whole entry, the tested form may be a part): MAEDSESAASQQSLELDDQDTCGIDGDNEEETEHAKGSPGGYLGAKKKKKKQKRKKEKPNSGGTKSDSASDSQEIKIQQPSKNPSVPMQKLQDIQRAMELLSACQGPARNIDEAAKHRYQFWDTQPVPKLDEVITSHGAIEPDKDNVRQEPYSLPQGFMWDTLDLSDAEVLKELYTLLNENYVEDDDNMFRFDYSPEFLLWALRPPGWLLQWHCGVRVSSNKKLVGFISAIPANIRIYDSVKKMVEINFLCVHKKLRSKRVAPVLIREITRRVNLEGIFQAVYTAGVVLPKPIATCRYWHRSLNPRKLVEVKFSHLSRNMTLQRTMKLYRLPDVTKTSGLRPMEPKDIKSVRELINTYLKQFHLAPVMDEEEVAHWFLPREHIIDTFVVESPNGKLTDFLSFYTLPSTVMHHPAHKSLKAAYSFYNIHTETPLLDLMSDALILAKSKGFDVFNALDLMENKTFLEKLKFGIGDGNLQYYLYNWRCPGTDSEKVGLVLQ
Described as above. The assay is classed as biochemical.
Description: as §9, §10, §11

Assay [8] concerns Ramos B lymphoma cells transfected with pcDNA3.1-V5-NMT2. Put plainly: Survival of NMT2-transfected Ramos cells, trypan blue exclusion. It counts as cell-based, human. Particulars: TrisDBA 5 ug/ml, 24 hours. Here is the method: as §6

Residues, ends and D or L forms follow the SMILES beside them. *: point of attachment. Cbz = O=C(OCc1ccccc1)*

`CC(C)C[C@@H](C=O)NC(=O)[C@H](CC(C)C)NC(=O)[C@H](CC(C)C)NC(=O)OCc1ccccc1` [MG-132] (Cbz-Leu-Leu-Leu-aldehyde): the Mcl-1 levels result in assay [1] is given as “increased levels of Mcl-1”. Also, in [2], the NMT2 levels entry is on record as “did not increase”.
Consider `O=C(CCCCCCC(=O)Nc1ccccc1)NO` [SAHA, suberoylanilide hydroxamic acid], for which the NMT2 levels result in [3] is listed as “increased NMT2 levels”. For the same compound, the NMT1 levels result in assay [4] is reported as “remained relatively unchanged”. Moreover, the p21/WAF1 levels result in assay [5] is given as “increased p21/WAF1 levels”.
Turning to “tris-dibenzylideneacetone-dipalladium [TrisDBA]”, the “sensitivity (residual viability)” value in assay [6] and in assay [7] was “more sensitive” throughout. The half-maximal inhibitory concentration (IC50) was around 2 µM on NMT1 (NMT1, in vitro) and around 5 µM against NMT2 (NMT2, in vitro). The “inhibition of NMT activity” value at NMT1 (purified recombinant NMT1) and at NMT2 (purified recombinant NMT2) was “inhibits NMT in vitro” each time. For the same compound, in assay [8], the “increase of survival by NMT2 transfection vs control cells transfected with empty plasmid vector” value is listed as 2.5 fold.

Source of the values: patent publication US20250179589A1, “SYNTHETIC LETHALITY AND THE TREATMENT OF CANCER” (PACYLEX PHARMACEUTICALS INC., priority 2012, published 2025).
